# Test results reported in patent US20260216151A1, “GPR65 MODULATORS” (Pathios Therapeutics Limited, priority 2023, published 2026).
# pIC50: −log10 of the molar value.
# Target: T1, human recombinant GPR65 (Homo sapiens, UniProt Q8IYL9)
# T1 construct: host or cells: 1321N1 human astrocytoma cells (1321N1-hrGPR65)
# Experiment: Human GPR65 cAMP HTRF antagonist assay
# Format: cell-based
# Conditions: 1321N1-hrGPR65 cells, assay pH 7.2, cAMP HTRF; read-out: hGPR65 IC50
# Procedure: Human GPR65 Cyclic Adenosine Monophosphate (cAMP) Homogeneous Time Resolved Fluorescence (HTRF) Antagonist Assay Procedure
# IC50 data was obtained by the following procedure:
# 1321N1 human astrocytoma cells stably expressing human recombinant GPR65 (1321N1-hrGPR65 cells, EuroscreenFast) were cultured according to the vendor's instructions.
# Compounds were tested for their ability to antagonise GPR65, through measuring the concentration of cytoplasmic cAMP following treatment of the cells at a pH of 7.2 to activate GPR65 signalling and addition of the compound to be tested. The extent to which the expected rise in cAMP concentration upon GPR65 activation was suppressed by the added compound is indicative of its potency. The assay was carried out according to EuroscreenFast assay Methodology as follows.
# On the day of the assay, test compounds were added to 384-well, low volume, white microtiter plates by acoustic dispensing. KRH buffer (5 mM KCl, 1.25 mM MgSO4, 124 mM NaCl, 25 mM HEPES, 13.3 mM Glucose, 1.25 mM KH2PO4 and 1.45 mM CaCl2) was adjusted to pH 6.5, pH 7.6 and pH 8.4 by adding NaOH. 1321N1-hGPR65 cells were rapidly thawed and diluted in KRH, pH 7.6 prior to centrifugation at 300×g for 5 min and resuspension in assay buffer (KRH, pH 7.6, supplemented with 1 mM 3-isobutyl-1-methylxanthine (IBMX) and 200 μM ethylenediaminetetraacetic acid (EDTA)). Cells were added to assay plates at a density of 2,000 cells per well in a volume of 5 μl. Assay plates were briefly centrifuged at 100×g and then incubated at room temperature for 30 min. Cells were stimulated by the addition of 5 μL KRH, pH 6.5, to achieve an assay pH of 7.2, while control wells received 5 μl KRH, pH 8.4 to achieve an assay pH of 7.9. Assay plates were briefly centrifuged at 100×g and then incubated at room temperature for 30 min.
# Accumulation of cAMP was detected by cAMP HTRF kit (Cisbio). d2-labeled cAMP and cryptate-labeled anti-cAMP antibody in Lysis and Detection Buffer (Cisbio) were added to assay plates, and the plates were incubated at room temperature for 1 h. HTRF measurements were performed using a Pherastar FSX instrument. Acceptor and donor emission signals were measured at 665 nm and 620 nm, respectively, and HTRF ratios were calculated as signal665 nm/signal620 nm×10^4. Data were normalised to high and low control values and fitted with 4-parameter logistic regression to determine hGPR65 IC50 values for the test compounds, which are shown in Table 1.
# T1 sequence (Q8IYL9 whole entry): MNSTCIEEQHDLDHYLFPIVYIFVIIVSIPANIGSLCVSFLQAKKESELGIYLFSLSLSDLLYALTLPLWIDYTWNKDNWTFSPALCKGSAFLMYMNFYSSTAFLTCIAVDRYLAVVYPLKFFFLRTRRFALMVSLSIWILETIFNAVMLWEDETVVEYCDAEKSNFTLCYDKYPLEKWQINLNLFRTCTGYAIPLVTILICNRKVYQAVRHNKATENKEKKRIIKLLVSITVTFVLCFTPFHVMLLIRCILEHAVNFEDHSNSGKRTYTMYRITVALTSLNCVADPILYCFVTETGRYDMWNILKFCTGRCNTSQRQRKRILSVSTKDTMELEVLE
row,Structure (SMILES),pIC50
1,"Cc1cc(-c2ccc(OCC(F)(F)F)nc2)c(Cl)cc1NC(=O)N1CCc2cc(=O)[nH]cc2C1 [Compound 15, N-(5-Chloro-2-methyl-4-(6-(2,2,2-trifluoroethoxy)pyridin-3-yl)phenyl)-6-oxo-3,4,6,7-tetrahydro-2,7-naphthyridine-2(1H)-carboxamide]",5.30 to 6.30
2,"O=C(Nc1cc(Cl)c(-c2ccc(F)nc2)cc1F)N1CCc2cc(=O)[nH]cc2C1 [Compound 3, N-(5-chloro-2-fluoro-4-(6-fluoropyridin-3-yl)phenyl)-6-oxo-3,4,6,7-tetrahydro-2,7-naphthyridine-2(1H)-carboxamide]",5.30 to 6.30
3,"O=C(Nc1cc(Cl)c(-c2ccc3nonc3c2)cc1F)N1CCc2cc(=O)[nH]nc2C1 [Compound 13, N-(4-(Benzo[c][1,2,5]oxadiazol-5-yl)-5-chloro-2-fluorophenyl)-3-oxo-2,5,6,8-tetrahydropyrido[3,4-c]pyridazine-7(3H)-carboxamide]",> 6.30
4,"O=C(Nc1cc(Cl)c(-c2cnc3nonc3c2)cc1F)N1CCc2cc(=O)[nH]cc2C1 [Compound 4, N-(4-([1,2,5]Oxadiazolo[3,4-b]pyridin-6-yl)-5-chloro-2-fluorophenyl)-6-oxo-3,4,6,7-tetrahydro-2,7-naphthyridine-2(1H)-carboxamide]",5.30 to 6.30
5,"CC(C)COc1ccc(-c2cc(F)c(NC(=O)N3CCc4cc(=O)[nH]cc4C3)cc2Cl)cn1 [Compound 9, N-(5-Chloro-2-fluoro-4-(6-isobutoxypyridin-3-yl)phenyl)-6-oxo-3,4,6,7-tetrahydro-2,7-naphthyridine-2(1H)-carboxamide]",> 6.30
6,"O=C(Nc1cc(Cl)c(-c2ccc(F)nc2)cc1OCc1ccccc1)N1CCc2cc(=O)[nH]cc2C1 [Compound 16, N-(2-(Benzyloxy)-5-chloro-4-(6-fluoropyridin-3-yl)phenyl)-6-oxo-3,4,6,7-tetrahydro-2,7-naphthyridine-2(1H)-carboxamide]",< 5.30
7,"COc1cc(-c2ccc(OCC(F)(F)F)nc2)c(Cl)cc1NC(=O)N1CCc2cc(=O)[nH]cc2C1 [Compound 14, N-(5-chloro-2-methoxy-4-(6-(2,2,2-trifluoroethoxy)pyridin-3-yl)phenyl)-6-oxo-3,4,6,7-tetrahydro-2,7-naphthyridine-2(1H)-carboxamide]",5.30 to 6.30
8,"COc1ccc(-c2cc(F)c(NC(=O)N3CCc4cc(=O)[nH]cc4C3)cc2Cl)cn1 [Compound 2, N-(5-Chloro-2-fluoro-4-(6-methoxypyridin-3-yl)phenyl)-6-oxo-3,4,6,7-tetrahydro-2,7-naphthyridine-2(1H)-carboxamide]",> 6.30

# More lines, now with the values ahead:
row,pIC50,Structure (SMILES)
1,> 6.30,"O=C(Nc1cc(Cl)c(-c2cc3nonc3cc2F)cc1F)N1CCc2cc(=O)[nH]cc2C1 [Compound 8, N-(5-Chloro-2-fluoro-4-(6-fluorobenzo[c][1,2,5]oxadiazol-5-yl)phenyl)-6-oxo-3,4,6,7-tetrahydro-2,7-naphthyridine-2(1H)-carboxamide]"
2,> 6.30,"O=C(Nc1cc(Cl)c(-c2cnc3nonc3c2)cc1F)N1CCc2c(ccnc2F)C1 [Compound 5, N-(4-([1,2,5]Oxadiazolo[3,4-b]pyridin-6-yl)-5-chloro-2-fluorophenyl)-5-fluoro-3,4-dihydro-2,6-naphthyridine-2(1H)-carboxamide]"
3,> 6.30,"O=C(Nc1cc(Cl)c(-c2ccc3nonc3c2)cc1F)N1CCc2cc(=O)[nH]cc2C1 [Compound 1, N-(4-(Benzo[c][1,2,5]oxadiazol-5-yl)-5-chloro-2-fluorophenyl)-6-oxo-3,4,6,7-tetrahydro-2,7-naphthyridine-2(1H)-carboxamide]"
4,> 6.30,"O=C(Nc1cc(Cl)c(-c2cc(F)c3nonc3c2)cc1F)N1CCc2cc(=O)[nH]cc2C1 [Compound 7, N-(5-Chloro-2-fluoro-4-(7-fluorobenzo[c][1,2,5]oxadiazol-5-yl)phenyl)-6-oxo-3,4,6,7-tetrahydro-2,7-naphthyridine-2(1H)-carboxamide]"
5,> 6.30,"O=C(Nc1cc(Cl)c(-c2ccnc(OCC(F)(F)F)c2)cc1F)N1CCc2cc(=O)[nH]cc2C1 [Compound 11, N-(5-Chloro-2-fluoro-4-(2-(2,2,2-trifluoroethoxy)pyridin-4-yl)phenyl)-6-oxo-3,4,6,7-tetrahydro-2,7-naphthyridine-2(1H)-carboxamide]"
6,> 6.30,"O=C(Nc1cc(Cl)c(-c2ccc(OCC(F)(F)F)nc2)cc1F)N1CCc2cc(=O)[nH]cc2C1 [Compound 6, N-(5-Chloro-2-fluoro-4-(6-(2,2,2-trifluoroethoxy)pyridin-3-yl)phenyl)-6-oxo-3,4,6,7-tetrahydro-2,7-naphthyridine-2(1H)-carboxamide]"
7,> 6.30,"O=C(Nc1cc(Cl)c(-c2ccc(OCC(F)(F)F)nc2)cc1F)N1CCc2cc(=O)[nH]nc2C1 [Compound 12, N-(5-Chloro-2-fluoro-4-(6-(2,2,2-trifluoroethoxy)pyridin-3-yl)phenyl)-3-oxo-2,5,6,8-tetrahydropyrido[3,4-c]pyridazine-7(3H)-carboxamide]"
8,> 6.30,"O=C(Nc1cc(Cl)c(-c2cnc(OCC(F)(F)F)c(F)c2)cc1F)N1CCc2cc(=O)[nH]cc2C1 [Compound 10, N-(5-Chloro-2-fluoro-4-(5-fluoro-6-(2,2,2-trifluoroethoxy)pyridin-3-yl)phenyl)-6-oxo-3,4,6,7-tetrahydro-2,7-naphthyridine-2(1H)-carboxamide]"
